In brackets after ≈: the same amount, converted by molar mass. Where two headings read alike, the source gives them in different places.
Tests used:
[1] = test system: Rhizoctonia solani (sheath blight); experiment: Rice seed treatment field trial, attack type 1 (sheath blight); type: in vivo, also called Pellicularia sasakii; conditions: vs insecticide-treated control plots, after 2 months
[2] = test system: Helminthosporium oryzae (brown spot); experiment: Rice seed treatment field trial, attack type 2 (brown spot); type: in vivo, also called Cochliobolus miyabeanus; conditions: vs insecticide-treated control plots, after 2 months
[3] = test system: Pyricularia oryzae (leaf blast); type: in vivo, also called Magnaporthe grisae; conditions: vs insecticide-treated control plots, after 2 months
[4] = test system: Pyricularia oryzae (neck blast); type: in vivo; conditions: vs insecticide-treated control plots, after 2 months
[5] = test system: Rhynchosporium oryzae (leaf scald); experiment: Rice seed treatment field trial, attack type 5 (leaf scald = leaf tip blight); type: in vivo; conditions: vs insecticide-treated control plots, after 2 months
[6] = test system: Sheath rot (Acrocylindrium oryzae and/or Gaeumannomyces graminis and/or Helminthosporium oryzae); experiment: Rice seed treatment field trial, attack type 6 (sheath rot); type: in vivo; conditions: vs insecticide-treated control plots, after 2 months
[7] = test system: Grain discoloration (Pseudomonas spp., Erwinia herbicola, Helminthosporium oryzae and/or Alternaria spp.); experiment: Rice seed treatment field trial, attack type 7 (grain discoloration); type: in vivo; conditions: vs insecticide-treated control plots
[8] = test system: Sphacelotheca reiliana; experiment: Maize seed treatment against head smut; type: in vivo; conditions: maize (Adonis), 250 g/100 kg seeds, 3 months after sowing
Method: This example illustrates application against head smut (Sphacelotheca reiliana).
Maize seeds (variety Adonis) were treated in the proportion of 250 g of active material per 100 kg of seeds.
These seeds are sown in 9×9 cm pots filled with a mixture of compost and coarse sand which has been pre-infected by incorporation of Sphacelotheca reiliana spores according to 2 infectious doses: […] of substrate. Each pot contains 5 maize seeds.
These pots are then placed under glass on sand kept moist by regular sprinkling, at a temperature of 20° C. and a relative humidity of 60%.
Three months after sowing, the seedlings carrying the disease (presence or absence of smut in the maize inflorescences) are counted and the results shown in the table below (expressed as percentage) are obtained. The control seedlings correspond to pots filled with a substrate infected with the disease in which untreated maize seeds have been sown.

[9] = test system: Fusarium moniliforme; experiment: Maize seed treatment against root rot; type: in vivo; conditions: maize (Pinnacle), control 92
Method: This example illustrates application against root rot (Fusarium moniliforme).
Maize seeds (variety Pinnacle) were treated in the proportion of 125 and 250 g of active material per 100 kg of seeds.
These seeds are sown in 7×7 cm pots filled with vermiculite in the proportion of 5 seeds per pot. Infection is carried out by introducing, into the vicinity of the seeds, in the upper part of the substrate, 10 ml of an aqueous suspension containing 400000 spores of Fusarium moniliforme per ml.
These pots are then maintained at 80% humidity for 3 weeks at 8° C. and then for 2 weeks at 16° C.
The seedlings carrying the disease (unemerged seedlings and seedlings with slowed and deformed growth) are then counted and the results shown in the table below (expressed as percentage) were obtained. The control seedlings correspond to pots in which untreated maize seeds have been sown, which seeds have been infected with the disease.

[10] = test system: Microdochium nivale; experiment: Wheat seed treatment against snow mould; type: in vivo; conditions: wheat (Ixos), naturally infected, control 96
Method: This example illustrates application against snow mould (Microdochium nivale).
Wheat seeds (variety Ixos), naturally infected with Microdochium nivale, were treated in the proportion of 5, 10, 25, 50 and 100 g of active material per 100 kg of seeds.
(§1) These seeds are sown in 7×7 cm pots filled with a peat/pozzolana mixture in the proportion of 25 seeds per pot.
These pots are maintained at 5° C. and in darkness for 3 weeks and are then placed at 10° C. under artificial light for 1 week. They are finally placed under glass, on sand kept moist by regular sprinkling, at 20° C. and 60% relative humidity for 1 week.
The seedlings carrying the disease (unemerged seedlings and deformed seedlings) are then counted and the results shown in the table below (expressed as percentage) are obtained. The control seedlings correspond to pots in which wheat seeds, naturally infected with the disease, have been sown, which seeds have not been treated.

[11] = test system: Puccinia recondita forma speciae tritici; experiment: Wheat seed treatment against brown rust; type: in vivo; conditions: wheat (Theseus), infected foliar area, control 61
Method: EXAMPLE 8 This example illustrates application against brown rust of wheat (Puccinia recondita forma speciae tritici).
Wheat seeds (variety Theseus) were treated in the proportion of 10, 25, 50 and 100 g of active material per 100 kg of seeds.
These seeds are sown in 7×7 cm pots filled with a peat/pozzolana mixture in the proportion of 40 to 50 seeds per pot.
These pots are maintained at 10° C. under artificial light for 3 weeks, so that they arrive at the growth stage known as the 1-2-leaf stage.
Infection is then carried out by spraying an aqueous suspension containing 100000 spores of Puccinia recondita per ml.
The pots are then placed at 20° C. and 100% relative humidity for 24 hours and then under glass, on sand kept moist by regular sprinkling, at 20° C. and 80% relative humidity for 10 days.
The infected foliar area of the 1st leaf is then quantified visually.
The results shown in the table below (expressed as percentage) are obtained. The control seedlings correspond to pots in which untreated wheat seeds have been sown, which seeds have been infected by the disease.

[12] = test system: Pyrenophora graminea; experiment: Barley seed treatment against leaf stripe; type: in vivo; conditions: barley (Agneta), naturally infected, 100 g/100 kg seeds
Method: This example illustrates application against leaf stripe (Pyrenophora graminea).
Barley seeds (variety Agneta), naturally infected with Pyrenophora graminea, were treated in the proportion of 100 g of active material per 100 kg of seeds.
as §1
These pots are maintained at 5° C. and in darkness for 3 weeks and are then placed at 10° C. under artificial light for 1 week. They are finally placed under glass, on sand kept moist by regular sprinkling, at 20° C. and 60% relative humidity for 3 weeks.
The seedlings carrying the disease (seedlings carrying off-white streaks along the leaves) are then counted and the following results (expressed as percentage) are obtained. The control seedlings correspond to pots in which barley seeds, naturally infected with the disease, have been sown, which seeds have not been treated. Two successive tests were carried out.

[13] = test system: Rhizoctonia solani; experiment: Cotton seed treatment against damping off; type: in vivo; conditions: cotton (DP 50), 17 days; for Total damping off (in %): pre-+post-emergence, control 80; for Pre-emergence damping off (in %): control 70
Method: This example illustrates application against damping off (Rhizoctonia solani).
Cotton seeds (variety DP 50) were treated in the proportion of 125, 250 and 500 g of active material per 100 kg of seeds.
These seeds are sown in 7×7 cm pots filled with a peat/pozzolana mixture which has been pre-infected by incorporation of 1 part of an aqueous suspension containing milled Rhizoctonia solani mycelium in 1600 parts of substrate. Each pot contains 5 cotton seeds.
These pots are then placed under glass at a temperature of 25° C. and at a relative humidity of 80% for 17 days.
The results with respect to early damping off (pre-emergence) and with respect to all the damping off attacks (pre-+post-emergence) are shown in the table below (expressed as percentage). The control seedlings correspond to pots filled with a substrate infected with the disease in which untreated cotton seeds have been sown.

[14] = test system: Coniophora puteana; experiment: Inhibition of growth of wood-degrading fungus on agar; type: cell-based; conditions: agar culture medium, 20° C., read-out: IC50 (50% inhibition of the growth of the fungus)
Method: (§2) This example illustrates application against fungi which degrade wood.
(§3) Agar culture medium containing different doses of the active material to be tested is introduced into petri dishes.
(§4) Petri dishes with the same culture medium without the active material are prepared in order to act as control.
(§5) One day after the preparation of these petri dishes, agar implants supporting a fungal culture are deposited at the center of each petri dish. The fungi tested are: Serpula lacrymans, Coniophora puteana (dry and wet rots) and Gleophyllum trabeum.
(§6) The petri dishes are then placed at 20° C. until the results are recorded. The results are read when the untreated control culture has colonized virtually all the dish. The diameter of the fungal cultures is then measured and the concentration of active material causing 50% inhibition of the growth of the fungus (called the IC50) is calculated.

[15] = test system: Gloeophyllum trabeum; experiment: as above; type: cell-based; conditions: agar culture medium, 20° C., read-out: IC50 (50% inhibition of the growth of the fungus)
Method: as §2, §3, §4, §5, §6

[16] = test system: Serpula lacrymans; experiment: as above; type: cell-based; conditions: agar culture medium, 20° C., read-out: IC50 (50% inhibition of the growth of the fungus)
Method: as §2, §3, §4, §5, §6

[17] = Ex. 1: 40 g/100 kg rice seed, 150 kg/ha
[18] = Ex. 2: 40 g/100 kg rice seed, 200 kg/ha
[19] = Ex. 3: 40 g/100 kg rice seed, 150 kg/ha, pregerminated
[20] = Ex. 4: 40 g/100 kg rice seed, 200 kg/ha, pregerminated

Compound: N#Cc1nn(-c2c(Cl)cc(C(F)(F)F)cc2Cl)c(N)c1[S+]([O-])C(F)(F)F (stereo not shown) [Compound A, 5-amino-3-cyano-1-(2,6-dichloro-4-trifluoromethyl)phenyl-4-trifluoromethylsulfinylpyrazole]
- number of sheaths attacked; result observed, expressed as percentage [1, 17]: 55 percentage
- number of sheaths attacked; result observed, expressed as percentage [1, 18]: 60 percentage
- number of sheaths attacked; result observed, expressed as percentage [1, 19]: 55 percentage
- number of sheaths attacked; result observed, expressed as percentage [1, 20]: 60 percentage
- area of leaves attacked; result observed, expressed as percentage [2, 17]: 79 percentage
- area of leaves attacked; result observed, expressed as percentage [2, 18]: 87 percentage
- area of leaves attacked; result observed, expressed as percentage [2, 19]: 79 percentage
- area of leaves attacked; result observed, expressed as percentage [2, 20]: 87 percentage
- number of sheaths attacked; result observed, expressed as percentage [3, 17]: 82 percentage
- number of sheaths attacked; result observed, expressed as percentage [3, 18]: 90 percentage
- number of sheaths attacked; result observed, expressed as percentage [3, 19]: 82 percentage
- number of sheaths attacked; result observed, expressed as percentage [3, 20]: 90 percentage
- number of plants attacked just below the ear; result observed, expressed as percentage [4, 17]: 35 percentage
- number of plants attacked just below the ear; result observed, expressed as percentage [4, 18]: 39 percentage
- number of plants attacked just below the ear; result observed, expressed as percentage [4, 19]: 35 percentage
- number of plants attacked just below the ear; result observed, expressed as percentage [4, 20]: 39 percentage
- number of leaves having a withered part; result observed, expressed as percentage [5, 17]: 57 percentage
- number of leaves having a withered part; result observed, expressed as percentage [5, 18]: 63 percentage
- number of leaves having a withered part; result observed, expressed as percentage [5, 19]: 57 percentage
- number of leaves having a withered part; result observed, expressed as percentage [5, 20]: 63 percentage
- number of sheaths attacked; result observed, expressed as percentage [6, 17]: 80 percentage
- number of sheaths attacked; result observed, expressed as percentage [6, 18]: 88 percentage
- number of sheaths attacked; result observed, expressed as percentage [6, 19]: 80 percentage
- number of sheaths attacked; result observed, expressed as percentage [6, 20]: 88 percentage
- number of grains in which the normal yellow color is replaced by brown blemishes; result observed, expressed as percentage [7, 17]: 63 percentage
- number of grains in which the normal yellow color is replaced by brown blemishes; result observed, expressed as percentage [7, 18]: 70 percentage
- number of grains in which the normal yellow color is replaced by brown blemishes; result observed, expressed as percentage [7, 19]: 63 percentage
- number of grains in which the normal yellow color is replaced by brown blemishes; result observed, expressed as percentage [7, 20]: 70 percentage
- Number of diseased seedlings (in %) ([8]; infectious dose 0.125 g/kg, control 67): 46%
- Number of diseased seedlings (in %) ([8]; infectious dose 0.25 g/kg, control 71): 40%
- Number of diseased seedlings (in %) ([9]; 125 g/100 kg seeds): 72%
- Number of diseased seedlings (in %) ([9]; 250 g/100 kg seeds): 76%
- Number of diseased seedlings (in %) ([10]; 5 g/100 kg seeds): 89%
- Number of diseased seedlings (in %) ([10]; 10 g/100 kg seeds): 82%
- Number of diseased seedlings (in %) ([10]; 25 g/100 kg seeds): 89%
- Number of diseased seedlings (in %) ([10]; 50 g/100 kg seeds): 85%
- Number of diseased seedlings (in %) ([10]; 100 g/100 kg seeds): 80%
- Infection of the 1st leaf (in %) ([11]; 10 g/100 kg seeds): 47%
- Infection of the 1st leaf (in %) ([11]; 25 g/100 kg seeds): 37%
- Infection of the 1st leaf (in %) ([11]; 50 g/100 kg seeds): 17%
- Infection of the 1st leaf (in %) ([11]; 100 g/100 kg seeds): 2%
- Number of diseased seedlings (in %) ([12]; Test No. 1, control 50): 34%
- Number of diseased seedlings (in %) ([12]; Test No. 2, control 44): 29%
- Total damping off (in %) ([13]; 125 g/100 kg seeds): 50%
- Pre-emergence damping off (in %) ([13]; 125 g/100 kg seeds): 45%
- Total damping off (in %) ([13]; 250 g/100 kg seeds): 60%
- Pre-emergence damping off (in %) ([13]; 250 g/100 kg seeds): 45%
- Total damping off (in %) ([13]; 500 g/100 kg seeds): 50%
- Pre-emergence damping off (in %) ([13]; 500 g/100 kg seeds): 10%
- IC50 [14]: 16.3 µg/mL (≈ 37.3 µM)
- IC50 [15]: 0.3 µg/mL (≈ 0.686 µM)
- IC50 [16]: 14.5 µg/mL (≈ 33.2 µM)

Source: US5977156A (priority 1996, dated 1999)
